Source: publication PMC9329436, “Optimization of the 4-anilinoquin(az)oline scaffold as epidermal growth factor receptor (EGFR) inhibitors for chordoma utilizing a toxicology profiling assay platform” (Scientific Reports, 2022)
Values joined by “and” are separate entries in the source; they are usually repeats but may differ in a detail not shown here. Equal entries are not always repeated.

Columns and labels:
EGFR = EGFR (Homo sapiens, UniProt P00533); assay: ProQinase in-cell EGFR assay (EGFR phosphorylation in A431 cells); assay type: cell-based; design: This cell line endogenously expresses a high level of EGFR; endogenous in cells; host or cells: A431; conditions: ProQinase in-cell EGFR assay, A431 cells, n = 1
Sequence of EGFR (P00533 25-1210): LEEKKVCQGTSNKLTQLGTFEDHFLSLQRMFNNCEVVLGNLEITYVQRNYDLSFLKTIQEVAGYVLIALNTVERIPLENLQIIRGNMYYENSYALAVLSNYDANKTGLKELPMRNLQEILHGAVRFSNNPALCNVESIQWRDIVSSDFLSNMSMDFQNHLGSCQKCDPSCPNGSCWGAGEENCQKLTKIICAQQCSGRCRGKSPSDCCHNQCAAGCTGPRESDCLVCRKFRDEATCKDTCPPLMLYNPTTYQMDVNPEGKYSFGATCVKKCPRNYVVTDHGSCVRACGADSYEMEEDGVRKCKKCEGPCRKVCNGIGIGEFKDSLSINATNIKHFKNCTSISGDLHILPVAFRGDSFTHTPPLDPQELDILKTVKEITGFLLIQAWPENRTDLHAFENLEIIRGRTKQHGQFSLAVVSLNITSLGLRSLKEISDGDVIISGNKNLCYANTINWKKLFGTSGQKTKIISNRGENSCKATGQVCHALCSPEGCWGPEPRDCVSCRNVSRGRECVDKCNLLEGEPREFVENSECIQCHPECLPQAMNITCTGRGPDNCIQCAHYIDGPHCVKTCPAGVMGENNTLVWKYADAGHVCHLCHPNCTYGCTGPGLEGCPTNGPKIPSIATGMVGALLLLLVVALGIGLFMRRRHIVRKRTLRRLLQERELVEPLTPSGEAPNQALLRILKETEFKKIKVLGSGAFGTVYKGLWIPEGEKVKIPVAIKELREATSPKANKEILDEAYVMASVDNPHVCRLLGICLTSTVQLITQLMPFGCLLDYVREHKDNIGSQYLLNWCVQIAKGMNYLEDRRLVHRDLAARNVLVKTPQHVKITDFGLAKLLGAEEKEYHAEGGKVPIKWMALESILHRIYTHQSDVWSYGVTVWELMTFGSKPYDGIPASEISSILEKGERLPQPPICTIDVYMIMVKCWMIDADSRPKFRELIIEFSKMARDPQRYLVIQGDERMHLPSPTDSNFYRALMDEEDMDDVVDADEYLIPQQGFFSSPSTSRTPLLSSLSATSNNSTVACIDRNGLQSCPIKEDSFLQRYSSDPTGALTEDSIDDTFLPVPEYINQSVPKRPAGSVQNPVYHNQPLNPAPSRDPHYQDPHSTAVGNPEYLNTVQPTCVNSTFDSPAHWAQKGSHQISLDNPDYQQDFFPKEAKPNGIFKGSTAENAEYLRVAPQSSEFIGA
Description: In addition, we ran an EGFR in-cell target engagement assay, measuring in-cell EGFR phosphorylation, using the human epidermoid carcinoma cell line A431. This cell line endogenously expresses a high level of EGFR, and stimulation of these cells with human epidermal growth factor (EGF) results in receptor tyrosine autophosphorylation.

U-CH1 chordoma cell line = assay: Cell viability assay (alamarBlue, 72 h), U-CH1; assay type: cell-based, human
Procedure: (§1) Chordoma cell lines were cultured as described previously[10],[12],[33],[34]. Briefly, U-CH1 and U-CH2 cell lines were cultured in 4:1 IMDM:RPMI medium supplemented with 10% fetal bovine serum (FBS) and 1% penicillin/streptomycin in gel-coated flasks. […] CH22, UM-Chor1, U-CH12, and U-CH7 cell lines were cultured in RPMI medium supplemented with 10% FBS and 1% penicillin/streptomycin. The cell lines all undergo regular mycoplasma screening.
(§2) Cells were seeded in 384 well plates and were treated with test compound in quadruplicate 24 h after plating. Cell viability was assessed at 72 h using alamarBlue (ThermoFisher, USA). […] IC50 values were determined by four-parameter nonlinear regression analyses using GraphPad Prism™ version 8 software (San Diego, CA).

U-CH2 chordoma cell line = assay: Cell viability assay (alamarBlue, 72 h), U-CH2; assay type: cell-based, human
Procedure: as §1, §2

HL60 cells = assay: AsedaSciences SYSTEMETRIC Cell Health Screen (flow cytometry toxicity profiling); conditions: for CC: Cell Cycle score / CM: Cell morphology score / CMI: Cell membrane integrity score / GSH: Glutathione score / MMP: Mitochondrial membrane depolarization score / NMI1: Nuclear membrane integrity 1 score / NMI2: Nuclear membrane integrity 2 score / ROS: Reactive superoxide species score / CHI: Cell Health Index: HL60, 4 h, 5 nM–100 µM; for CC: Cell Cycle score / CM: Cell morphology score / CMI: Cell membrane integrity score / GSH: Glutathione score / MMP: Mitochondrial membrane depolarization score / NMI1: Nuclear membrane integrity 1 score / NMI2: Nuclear membrane integrity 2 score / ROS: Reactive superoxide species score: probability 0–1, n = 2; for CHI: Cell Health Index: probability (0–1) of high-risk class, n = 2
How it was run: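 HL60 cells (100,000 per well) exposed 4 h at 37 °C, 5% CO2 to 10-step 3× dilutions (5 nM–100 µM), in duplicate. Cells then stained with mitochondrial and cell-stress reporter dyes and read by ungated flow cytometry over twelve parameters. Cell Health Index and eight endpoint scores come from an ML classifier trained on 300 high/low-risk compounds.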

[1] = system: CH22 patient-derived chordoma cell line; assay: Cell viability assay (alamarBlue, 72 h), CH22; assay type: cell-based, human; conditions: Homo sapiens, n = 4, 72 h
Procedure: as §1, §2

[2] = system: UM-Chor1 patient-derived chordoma cell line; assay: Cell viability assay (alamarBlue, 72 h), UM-Chor1; assay type: cell-based, human; conditions: Homo sapiens, n = 4, 72 h
Procedure: as §1, §2

[3] = system: U-CH12 patient-derived chordoma cell line; assay: Cell viability assay (alamarBlue, 72 h), U-CH12; assay type: cell-based, human; conditions: Homo sapiens, n = 4, 72 h
Procedure: as §1, §2

[4] = system: U-CH7 patient-derived chordoma cell line; assay: Cell viability assay (alamarBlue, 72 h), U-CH7; assay type: cell-based, human; conditions: Homo sapiens, n = 4, 72 h
Procedure: as §1, §2

[5] = system: WS1 human fibroblast cell line; assay: Cell viability assay, WS1 toxicity control; assay type: cell-based; conditions: Homo sapiens, Fibroblast, n = 4, nonspecific toxicity control
Procedure: as §2

[6] = SYSTEMETRIC Cell Health Screen, assay n=2

Row | SMILES | IC50 (EGFR) | IC50 (U-CH1 chordoma cell line; n = 4, 72 h) | IC50 (U-CH2 chordoma cell line; n = 4, 72 h) | CC: Cell Cycle score (HL60 cells) | CM: Cell morphology score (HL60 cells) | CMI: Cell membrane integrity score (HL60 cells) | GSH: Glutathione score (HL60 cells) | MMP: Mitochondrial membrane depolarization score (HL60 cells) | NMI1: Nuclear membrane integrity 1 score (HL60 cells) | NMI2: Nuclear membrane integrity 2 score (HL60 cells) | ROS: Reactive superoxide species score (HL60 cells) | CHI: Cell Health Index (HL60 cells) | IC50 [1] | IC50 [2] | IC50 [3] | IC50 [4] | also measured
1 | C#Cc1cccc(Nc2ncnc3cc(F)c(F)cc23)c1 [Compound 6, N-(3-ethynylphenyl)-6,7-difluoroquinazolin-4-amine] | 12 µM |  |  |  |  |  |  |  |  |  |  |  |  |  |  |  | 
2 | C#Cc1cccc(Nc2ncnc3ccc(C(F)(F)F)cc23)c1 [Compound 10] |  | 21 µM | 42 µM | 0.59 | 0.058 | 0.045 | 0.004 | 0.74 | 0.21 | 0.19 | 0.77 | 0.40 |  |  |  |  | 
3 | C#Cc1cccc(Nc2ncnc3ccc(C)cc23)c1 [Compound 4] |  | 15 µM | > 100 µM | 0.65 | 0.0051 | 0.21 | 0.12 | 0.49 | 0.059 | 0.17 | 0.20 | 0.31 |  |  |  |  | 
4 | C#Cc1cccc(Nc2c(C#N)cnc3ccc(I)cc23)c1 [Compound 28, 4-((3-ethynylphenyl)amino)-6-iodoquinoline-3-carbonitrile] | 2.5 µM |  |  | 0.91 | 0.88 | 1.00 | 0.93 | 0.99 | 0.74 | 0.81 | 0.89 | 0.70 | 8.4 µM | 6.9 µM | 7.7 µM | > 100 µM | IC50 (U-CH1 chordoma cell line; Homo sapiens, UCH1, n = 4, 72 h): 8.7 µM; IC50 (U-CH2 chordoma cell line; Homo sapiens, UCH2, n = 4, 72 h): 14 µM; Cell Health Toxcity Profile CC (DyeCycle Violet) (HL60 cells; [6]): 0.91; Cell Health Toxcity Profile CM (Cell morphology) (HL60 cells; [6]): 0.88; Cell Health Toxcity Profile CMI (Cell membrane integrity) (HL60 cells; [6]): 1.00; Cell Health Toxcity Profile GSH (Glutathione) (HL60 cells; [6]): 0.93; Cell Health Toxcity Profile MMP (Mitochondrial membrane depolarization) (HL60 cells; [6]): 0.99; Cell Health Toxcity Profile NMI1 (Nuclear membrane integrity 1) (HL60 cells; [6]): 0.74; Cell Health Toxcity Profile NMI2 (Nuclear membrane integrity 2) (HL60 cells; [6]): 0.81; Cell Health Toxcity Profile ROS (Reactive superoxide species) (HL60 cells; [6]): 0.89; Cell Health Toxcity Profile CHI (HL60 cells; SYSTEMETRIC Cell Health Screen, classifier output, assay n=2): 0.70
5 | C#Cc1cccc(Nc2ncnc3cc(OCCOC)c(OCCOC)cc23)c1 [Erlotinib, reference compound] |  |  |  |  | 0.77 | 0.50 and 0.74 | 0.63 and 0.81 |  |  |  |  |  | > 100 µM | 19 µM | 68 µM | 95 µM | IC50 [5]: 19 µM
